Results: patent publication US7097967B2, “Method of predicting drug-food interaction” (LG Life Sciences Ltd., priority 2002, dated 2006)
Structures can show the parent of a compound that is named as a salt. Where two headings read alike, the source gives them in different places. Values belong to the molecule of their own block, whether it stands above or below them.

What was measured:
Trypsin [1] = biological target: T1, Trypsin (Bos taurus, UniProt P00760); experiment: Measurement of activities of Drug A and its prodrugs to trypsin (chromogenic substrate, Ki); format: biochemical; details: tris buffer pH 7.8, N-benzoyl-Val-Gly-Arg-p-nitroanilide substrate, room temperature; read-out: Trypsin inhibition constant
T1 construct: gene PRSS1
T1 sequence (P00760 24-246): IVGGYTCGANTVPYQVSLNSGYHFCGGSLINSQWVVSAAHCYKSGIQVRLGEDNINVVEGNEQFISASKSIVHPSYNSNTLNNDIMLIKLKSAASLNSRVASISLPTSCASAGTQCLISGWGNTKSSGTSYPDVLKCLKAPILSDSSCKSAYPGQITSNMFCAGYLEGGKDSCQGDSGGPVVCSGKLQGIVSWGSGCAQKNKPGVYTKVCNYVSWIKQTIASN
Protocol: 140 μl of 0.1 M tris buffer solution (pH 7.8) containing 150 mM NaCl and 0.1% PEG 8000 (PolyEthylene Glycol, Molecular Weight: about 8,000) was pipetted into a microplate. A substrate solution was prepared by dissolving N-benzoyl-Val-Gly-Arg-p-nitroanilide hydro-chloride in DMSO to a concentration of 10 mM, and then diluting the resultant with the above buffer solution to a concentration of 0.5 mM. 20 μl of 0.5 mM substrate solution obtained thus was added to the microplate. An inhibitor solution was prepared by dissolving the inhibitor compound according to the present invention in DMSO to make the concentration of 10 mM, and then diluting the resultant with the above buffer solution to make the concentrations of 100000 nM, 10000 nM, 1000 nM, 100 nM, 10 nM, 1 nM, 0.1 nM, 0.01 nM and 0 nM, respectively. 20 μl of each inhibitor solution was adjusted to whole volume of 180 μl and then added to the microplate.
Trypsin which had been dissolved in 0.1 N HCl solution was added to the above tris buffer, just before the experiment, to make the concentration of 1 μg/ml, and 20 μl of solution obtained thus was added to the microplate containing the reaction solution at the room temperature. The amount of para-nitroaniline produced for 10 minutes after addition of enzymes was monitored by the light. The absorbance was plotted against the reaction time. Such graphs were obtained by performing the above experiment on the various concentrations of inhibitor.
Activities of Drug A and several prodrugs to trypsin were measured by determining the dissociation constant Ki, using the following formula according to the method described in Methods in Enzymology (V.80 p341–361; Biochemistry 27 p2144–2151,1988) Ki=[E]·[I]/[EI] • [E]: concentration of enzyme not bound to inhibitor • [I]: concentration of inhibitor not bound to enzyme • [EI]: concentration of binding product of enzyme and inhibitor
Such dissociation constant can be obtained by reacting with para-nitroanilide, which is chromogenic upon hydrolysis by the action of trypsin, and then measuring the extent of chromogenicity with time by spectroscopy.
The initial velocity, Vi, was obtained from the best-fit slope for the first 30 seconds after the reaction start time for each plot, and then a graph of the concentration of inhibitor versus the inverse of the initial velocity (1/Vi) was constructed. Thereafter, the linear function, which satisfies the graph, was calculated, and then Ki was calculated from the x-intercept of the above function using the enzymatic reaction formula. Km used in this calculation was obtained by changing the concentration of substrate at the constant enzyme concentration of […].

[2] = Effect of composition of food on bioavailability of Drug A in dog; format: in vivo; details: dogs; for bioavailability: dog, plasma, po
Protocol: A solution in which 5 g of starch dispersed in 40 ml of water, 40 ml of egg albumin, and a solution in which 5 g of Gelucire® (44/14) dispersed in 40 ml of water, respectively, were fed to two dogs […] before administration of Drug A. These dogs (8–11 kg, Covance Research Product corporation, MI, U.S.A) were bred in a standard laboratory cage, adjusted for a temperature (22±3° C.) and humidity (50±20%), with feed and water available ad libitum. The dogs were fasted for 18–20 hours prior to this experiment. The test group for ascertaining the effect of foods was provided with foods 1 hour before administration of a drug, and the drug was administered after ingestion of foods. At a previously fixed time after administration, 500 μl of blood was gathered from the cephalic vein using the heparinized syringe, and the blood plasma was separated by a centrifuge, and then the plasma concentration of the drug was measured by HPLC analysis.
A Shiseido Capcell-Pak C18 reverse phase column was used for the drug-detection, employing a Shimadzu HPLC system (Class-LC10A system control software, CBM-10A communication bus module, two LC-10AD pumps, SIL-10AXL autoinjector with sample cooler, SPD-10AV ultraviolet detector). The mobile phase was acetonitrile : 0.1% trifluoroacetic acid /5 mM sodium dodecyl sulfate=47 : 53 and the flow rate was 1 ml/min. Data, obtained after oral administration, was expressed in a graph of drug concentration versus time, and applied to the non-compartment model using Win-Nonlin program (Scientific Consultion Corporation, NC, U.S.A.), whereby pharmacokinetic parameters such as a half-life (t1/2), maximum concentration (Cmax), time of the maximum concentration (Tmax), AUCinf, AUClast, and bioavailability (BA) were calculated. AUC was obtained by applying the trapezoidal rule-extrapolation method, and BA was calculated by using the formula (AUCPO×DoseIV)/(AUCIV×DosePO). The result of the experiment is disclosed in FIG. 1 and TABLE 2.

[3] = cited from earlier work
[4] = dog, cited from earlier work
Trypsin [5] = biological target: T1, Trypsin; details: cited from earlier work
thrombin = thrombin (Homo sapiens, UniProt P00734); details: cited from earlier work
[6] = human subjects, oral; cited from earlier work
[7] = rats, oral; cited from earlier work

- Ki (Trypsin [1]): 0.3 nM
- bioavailability ([2]; in fasting state): 43%
- bioavailability ([2]; oral, after intake of Gelucire (lipid)): 20%
- bioavailability ([2]; oral, after intake of egg albumin): 13%
- bioavailability ([2]; oral, after intake of starch): 41%
- bioavailability after ingestion of foods ([2]; after ingestion of foods): decreased markedly
Compound: N=C(N)c1ccc(CNC(=O)[C@@H]2CCCN2C(=O)[C@H](NCC(=O)O)C(c2ccccc2)c2ccccc2)s1 [Drug A, (2S)-N-{5-[amino(imino)methyl]-2-thienyl}methyl-1-{(2R)-2-[(carboxylmethyl)amino]-3,3-diphenylpropanol}-2-pyrrolidincarboxamide]

- Ki (Trypsin [1]): 21300 nM
Compound: CCOC(=O)CN[C@@H](C(=O)N1CCC[C@H]1C(=O)NCc1ccc(/C(N)=N/OC(C)=O)s1)C(c1ccccc1)c1ccccc1 [Prodrug 2]

- Ki (Trypsin [1]): 5490 nM
Compound: CCOC(=O)CN[C@@H](C(=O)N1CCC[C@H]1C(=O)NCc1ccc(/C(N)=N/O)s1)C(c1ccccc1)c1ccccc1 [Prodrug 3]

Further lines, the molecule ahead of its results:

Compound: CC(C)(C)NC(=O)[C@@H]1CN(Cc2cccnc2)CCN1C[C@@H](O)C[C@@H](Cc1ccccc1)C(=O)N[C@H]1c2ccccc2C[C@H]1O [Indinavir, [1(1S,2R), 5(S)]-2,3,5-trideoxy-N-(2,3-dihydro-2-hydroxy-1H-inden-1-yl)-5-[2-[[(1,1-dimethylethylaminocarbonyl)-4-(3-pyridinylmethyl)-1-piperazinyl]-2-(phenylmethyl)-D-erytho-pentonamide sulfate (1:1) salt]
- absorption rate when administered together with foods [3]: absorption rate decreases

Compound: CCOC(=O)CN[C@@H](C(=O)N1CCC[C@H]1C(=O)NCc1ccc(/C(N)=N/C(=O)OCC(C)C)s1)C(c1ccccc1)c1ccccc1 [Prodrug 1]
- Ki (Trypsin [1]): 673 nM

Compound: CCOC(=O)CN[C@@H](C(=O)N1CCC[C@H]1C(=O)NCc1ccc(/C(N)=N/C(=O)OCC2CCCCC2)s1)C(c1ccccc1)c1ccccc1 [Prodrug 4]
- Ki (Trypsin [1]): 21000 nM

Compound: CC(=O)N[C@H](Cc1ccccc1)C(=O)N(CC(=O)N[C@@H](CCCN=C(N)N)B(O)O)C1CCCC1 [Prodrug S-18326, Ac-D-Phe-N-cyclopentylglycine-boroArg-OH]
- bioavailability ([4]; after meals): 6%
- bioavailability ([4]; fasting state): 27%
- IC50 (Trypsin [5]): 20 nM
- IC50 (thrombin): 3.6 nM

Compound: NCCCC[C@H](NC(=O)C1(C(=O)NCCc2ccccc2)CCCC1)B(O)O [Prodrug S-31922, 5-amino-1-R-(1phenethyl-carbamoyl-cyclopentanecaraboxamide) pentyl boronic acid]
- bioavailability ([4]; after meals): 22%
- bioavailability ([4]; fasting state): 36%
- IC50 (Trypsin [5]): 340 nM
- IC50 (thrombin): 43 nM

Compound: N=C(N)NCCCC(C=O)NC(=O)C1CCCN1C(=O)C1NCCC2CCCCC21 (stereo not drawn) [R-Piq-Pro-Arg-H]
- bioavailability after intake of foods [6]: decreases remarkably
- bioavailability after administration of foods [7]: decreases remarkably
